From patent US4435591A, “Compound with analgesic, antiinflammatory and antipyretic activity, and pharmaceutical compositions therefrom” (Ausonia Farmaceutici s.r.l., priority 1982, dated 1984)
Several values for one entry are separate records, joined by “and”; a condition that tells them apart may be missing. Identical values can stand only once. Like-named read-outs stand apart in the source and are kept apart here.

What was measured:
[1] = system: Writhing caused by phenylquinone in mice; test: Writhing caused by phenylquinone in mice (Siegmung et al); format: in vivo
Description: The analgesic activity of AFP 802 has been studied by means of the writhing test with phenylquinone in mice and by means of the test of Randall and Selitto in rats.

mice = test: in vivo; format: in vivo; conditions: mice and rats, particularly by the oral route
in vivo [2] = format: in vivo; conditions: mouse, in vivo, mice, read-out: DL50 (limit of error 95%)
in vivo [3] = conditions: rat, rats, read-out: DL50 (limit of error 95%)
[4] = system: Edema caused by kaolin in rats; test: Edema caused by kaolin in rats (Coulon et al); conditions: 5 consecutive days
[5] = system: Test of Randall and Selitto, in rats; test: Test of Randall and Selitto in rats; format: in vivo
Description: The analgesic activity of AFP 802 has been studied by means of the writhing test with phenylquinone in mice and by means of the test of Randall and Selitto in rats. Test of Randall and Selitto in rats. This test was carried out according to the method of L. Randall and J. Selitto reported in Arch. Int. Pharmacodyn., 1957 III, 409. […] The variations of pressure tolerated without variation in pain have been determined each hour, for 5 consecutive hours and the results are reported in Table 10.

[6] = Organ to plasma ratio of ibuprofen concentrations in rats; format: in vivo; conditions: vs administration of ibuprofen
Description: (§1) AFP 802 has been administered orally in the dose of 200 mg/kg in rats. […] The animals are killed in groups of four after the following time periods; 15 minutes, 30 minutes, 1 hour, 2 hours, 4 hours, 6 hours and 24 hours.

[7] = Pharmacokinetics, plasma levels after oral administration in rats; format: in vivo
Description: as §1

[8] = system: Arthritis caused by the adjuvant of Freund in rats; test: Arthritis caused by the adjuvant in rats (Winter and Nuss); format: in vivo
Description: For the evaluation for the efficiency of the substance the following parameters have been considered: diameter of articulations, volume of the hind paws, hematological and hematochemical examination, weight of the suprarenal glands and thymus.

[9] = system: Pleuritis caused by carrageenan in rats; test: Pleuritis caused by carrageenan in rats (Vinegar et al); format: in vivo; conditions: for Number of leucocytes × 1,000 / Volume of exudate in cc / Number of leucocytes, % inhibition with respect to the controls / Volume of exudate, % inhibition with respect to the controls: 100 mg/Kg oral
gastric mucosa = system: gastric mucosa; set-up: species or system rats; conditions: rat, in vivo, po
[10] = system: subplantar edema caused by carrageenan in rats; test: Edema caused by carrageenan in rats (Winter et al); format: in vivo; conditions: oral, AFP 802 187 mg/Kg, ibuprofen 100 mg/Kg
Description: The anti-inflammatory activity has been investigated by a series of tests using edema caused by carrageenan and kaolin pleuritis caused by carrageenan and arthritis caused by an adjuvant.
The plyethysmographic observations of the edema have been carried out every hour for a period of 7 hours after the induction of the edema.

[11] = system: Hyperthermia caused by yeast; test: Antipyretic activity, hyperthermia caused by yeast in rats (Boissier and Simon); format: in vivo
Description: The experiment has been carried out in rats in which the body temperature has been increased by means of yeast by the method according to J. R. Boissier and P. Simon (Therapie, 1962, 17, 1225). […] It is, however, necessary to keep in mind the difference in molecular weight between the two substances under examination.

[12] = both paws, area under the curve of the increases, 100 mg/Kg/die oral

SMILES: COc1cc(C(=O)OCC(C)c2ccc(CC(C)C)cc2)cc(OC)c1OC (centres unmarked) [AFP 802, 2-(4-isobutylphenyl)1-propanol 3,4,5-trimethoxybenzoate]
- % inhibition with respect to the control ([1]; 100 mg/Kg oral): 78.2%
- No. of Contorsions ([1]; 100 mg/Kg oral): 4.5
- % inhibition with respect to the control ([1]; 200 mg/Kg oral): 89.1%
- No. of Contorsions ([1]; 200 mg/Kg oral): 2.3
- analgesic activity compared with ibuprofen (in words) ([1]; equal weight, oral): equal activity of the two products
- DL50 compared with ibuprofen (in words) (mice): more favorable than ibuprofen particularly by the oral route
- LD50 (in vivo [2]; ip, intraperitoneal route): 1750 mg/kg
- LD50 (in vivo [2]; oral route): > 4000 mg/kg
- LD50 (in vivo [3]; ip, intraperitoneal route): 193 mg/kg
- LD50 (in vivo [3]; oral route): > 4000 mg/kg
- % inhibition with respect to the controls ([4]; area, oral every 24 hours, dose AFP 802 115, ibuprofen 60): 44.10%
- inhibition of the inflammation (in words) ([4]; equimolar oral doses): inhibits the inflammation to a substantial extent with values which overlap with the values obtained in the case of ibuprofen
- Area (area under the curve of the increase of the diameter of the articulations) ([4]; oral every 24 hours, dose AFP 802 115, ibuprofen 60): 9799.5 mm^2
- % INHIBITION WITH RESPECT TO THE CONTROL, I ([5]; area, inflamed paw, 100 mg/Kg oral): 110.89%
- % INHIBITION WITH RESPECT TO THE CONTROL, NI ([5]; area, not inflamed paw, 100 mg/Kg oral): 46.93%
- AREA ABSOLUTE VALUE, I ([5]; inflamed paw, area of the increase of the pressure tolerated, 100 mg/Kg oral): 11.7 ± 22.1
- activity expressed in percent of inhibition of the area (in words) ([5]; limb in which no injections have been made): fair, lower than the activity of ibuprofen
- activity expressed in percent of inhibition of the area (in words) ([5]; limbs affected by edema): high, superior to the activity of ibuprofen
- AREA ABSOLUTE VALUE, NI ([5]; not inflamed paw, area of the increase of the pressure tolerated, 100 mg/Kg oral): -61.20 ± 16.39
- ratio of the organ to the plasma for ibuprofen concentrations (in words) ([6]; kidney): lower in the case of kidney
- ratio of the organ to the plasma for ibuprofen concentrations (in words) ([6]; liver, lungs and uterus): higher in the case of liver, lungs and uterus
- presence in the blood fluid (in words) ([7]; 15 minutes and 30 minutes after oral 200 mg/kg): presence already after a short period of time in the blood fluid
- area under the curve of the plasma levels of ibuprofen (AUC) (in words) ([7]; AFP 802 200 mg/kg vs ibuprofen 100 mg/kg, oral): substantially similar in the administration of the two substances
- plasma levels of ibuprofen over time (in words) ([7]; ibuprofen after AFP 802 vs ibuprofen in equimolar doses): substantially latent with respect to ibuprofen in equimolar doses
- time when ibuprofen (active metabolite) begins to appear in the blood (in words) ([7]; ibuprofen after oral AFP 802 200 mg/kg): the first hour which is the time when ibuprofen, which is its active metabolite, begins to appear
- bioavailability by the oral route (in words) ([7]; oral 200 mg/kg): readily bioavailability by the oral route
- presence in the blood after the first hour (in words) ([7]; oral 200 mg/kg): found in the blood even after the first hour
- ALBUMIN (%) ([8]; 100 mg/Kg/die oral): 70.3 ± 0.97%
- GLOBULIN (%) α1 ([8]; 100 mg/Kg/die oral): 7.2 ± 0.36%
- GLOBULIN (%) α2 ([8]; 100 mg/Kg/die oral): 6.2 ± 0.38%
- GLOBULIN (%) β1 ([8]; 100 mg/Kg/die oral): 11.7 ± 0.30%
- GLOBULIN (%) β2 ([8]; 100 mg/Kg/die oral): 5.7 ± 0.45%
- GLOBULIN (%) γ ([8]; 100 mg/Kg/die oral): 2.0 ± 0.31%
- Hematocrit ([8]; 100 mg/Kg/die oral): 46.1 ± 0.6
- Red Cells ([8]; 100 mg/Kg/die oral): 5,912.600 ± 1.434 × mm^3
- VES ([8]; 100 mg/Kg/die oral): 0.9 ± 0.1
- Σ Diameter D + S, Area [8, 12]: 2,602.0
- Σ Volume D + S, Area [8, 12]: 15,652
- Σ Diameter D + S, % inhibition ([8]; both paws, 100 mg/Kg/die oral): 71.08%
- Σ Volume D + S, % inhibition ([8]; both paws, 100 mg/Kg/die oral): 47.76%
- activity in adjuvant arthritis (in words) ([8]; oral, 45 consecutive days, 6 days per week): essentially analogous to that of ibuprofen
- Suprarenal ([8]; weight, 100 mg/Kg/die oral): 64.5 ± 3.3 mg
- Thymus ([8]; weight, 100 mg/Kg/die oral): 422.3 ± 19.1 mg
- Number of leucocytes × 1,000 ([9]; 5 hours): 4,804 × 1,000
- Volume of exudate in cc ([9]; 5 hours): 0.56 cc
- Number of leucocytes, % inhibition with respect to the controls ([9]; 5 hours, 100 mg/kg): 71.80% and 72%
- Volume of exudate, % inhibition with respect to the controls ([9]; 5 hours, 100 mg/kg): 43.43% and 43%
- effect in pleuritis compared with ibuprofen (in words) ([9]; 5 hours, equal doses by weight): analogous to the values obtained by administration of equal doses by weight of ibuprofen
- effect in pleuritis (in words) ([9]; 24 hours after the administration): practically unchanged
- Number of leucocytes × 1,000 ([9]; 24 hours): 7,676 × 1,000
- Number of leucocytes, % inhibition with respect to the controls ([9]; 24 hours): 58.05%
- Volume of exudate in cc ([9]; 24 hours): 0.47 cc
- Volume of exudate, % inhibition with respect to the controls ([9]; 24 hours): 48.91%
- effects of gastric lesion (in words) (gastric mucosa): almost negligible
- Average volume of the paw ([10]; 0 hours): 22.6
- Average volume of the paw ([10]; 1 hour): 27.9
- Average volume of the paw ([10]; 2 hours): 28.6
- Average volume of the paw ([10]; 3 hours): 28.4
- Average volume of the paw ([10]; 4 hours): 28.9
- Average volume of the paw ([10]; 5 hours): 29.6
- % inhibition vs control ([10]; area): 60.4%
- Area Absolute Value [10]: 119.3
- % inhibition with respect to control ([11]; 100 mg/Kg oral): 86.12%
- Rectal temperature ([11]; 1 hour after treatment, 100 mg/Kg oral): 38.22 °C
- Rectal temperature ([11]; 2 hours after treatment, 100 mg/Kg oral): 37.75 °C
- Rectal temperature ([11]; 3 hours after treatment, 100 mg/Kg oral): 37.51 °C
- Rectal temperature ([11]; 4 hours after treatment, 100 mg/Kg oral): 37.16 °C
- Rectal temperature ([11]; 5 hours after treatment, 100 mg/Kg oral): 37.04 °C
- Rectal temperature ([11]; Basal, 100 mg/Kg oral group): 38.73 °C
- antipyretic activity compared with ibuprofen (in words) ([11]; equal dose, oral): only slightly inferior to the activity of an equal dose of ibuprofen
- duration of action compared with ibuprofen (in words) ([11]; rat, in vivo): longer duration of action
